From patent US20250250559A1, “METHOD TO ANALYZE AND OPTIMIZE GENE EDITING MODULES AND DELIVERY APPROACHES” (Hoffmann-La Roche Inc., priority 2016, published 2025)
Values joined by “and” are separate entries in the source; they are usually repeats but may differ in a detail not shown here. Identical values can stand only once. “Also recorded” adds a separate entry of the source.

Legend:
[1] = test system: DPH1 gene; experiment: PM resistant colony count after DPH1 gene editing (PAC cassette integration); format: cell-based, human; settings: for # of PM resistant colonies (40,000 seeded cells): MCF7, individual samples A-D; for # of PM resistant colonies (mean of the samples) / # of PM resistant colonies: TF eff. = 38%; for # of PM resistant colonies: DPH1 assay (integr. vs. k.o.), individual samples
Procedure: (§1) MCF7 cells (Brooks, et al. 1973) were originally obtained from ATCC (subsequently propagated in an in-house cell bank) and maintained in RPMI […] medium supplemented with 10% FCS, 2 mM L-Glutamine and penicillin/streptomycin at 37° C. and 85% humidity. For transfection of plasmids harboring gene-editing modules, 3,000,000 cells were seeded in a 10 cm diameter culture dish and cultivated at 37° C. and humidified 5% CO2. 24 h after seeding, cells were transfected with 20 μg total DNA using JetPEI (Polyplus) according to the manufacturer's protocol but with an N/P ratio of 6:1. Transfection efficiency was determined after 24 h by flow cytometry (FACS Calibur, BD biosciences) of cells that were transfected with a modified eGFP expression plasmid (Zhang, et al. 1996).
(§2) Plasmids encoding CRISPR/Cas9 gene-editing entities (i.e. knock-out and integration systems) against Dph1 (gRNA target sequence: […] (SEQ ID NO: 01) derived from RefSeq: NM_001383) and Dph2 (gRNA target sequence: […] (SEQ ID NO: 02) derived from RefSeq: NM_001039589, NM_001384), and scrambled control (gRNA sequence: […] (SEQ ID NO: 03)) were obtained from OriGene. This system comprises one plasmid expressing a ˜100 nt gRNA under control of a U6 promoter as well as Cas9 nuclease under control of a CMV promoter and a Donor plasmid with a promoter-less GFP/PM expression cassette flanked by homologous arms to the target gene (Dph1 or Dph2). Additional Dph1 gRNA sequence variants of different sizes (OriGene) […]
MCF7 cells which have all chromosomal copies of DPH1 or DPH2 inactivated are resistant to diphtheria toxin (Stahl, et al. 2015). Thus, occurrence and frequency of toxin resistant cells/colonies upon CRISPR/Cas inflicted gene inactivation provides a measure for efficiency of inactivation of all gene copies. Therefore, MCF/cells were transfected as described in Example 1 with (i) a GFP expression plasmid as transfection control, (ii) the CRISPR/Cas9 Dph1 or Dph2 knock-out/integration system and (iii) knock-out/integration entities containing a scrambled gRNA to determine Cas9 independent integration frequencies. After determination of transfection efficiency, cells were seeded in 6-well plates. […] RPMI medium was exchanged by RPMI medium containing DT or PM or both toxins 3 days after cell seeding. Exchange of medium was repeated every 2-3 days until all dead cells were removed from the plates and actively growing colonies could be detected via microscopic inspection. Thereafter (between day 12 and day 14 after start of toxin exposure), cells were washed 3 times with PBS and subsequently stained with ice cold methylene blue (0.2% in 50% EtOH). Methylene blue solution was subsequently removed and the plates were carefully washed under running water. Finally, cell colonies were counted under the microscope with a 5 mm grid foil.
CRISPR/Cas module for targeted integration contains a puromycin (PM) resistance gene expression cassette without promoter to avoid transient expression. Thus, detection of integration of recombinant sequences into the genome was detected by determining sensitivity of cells towards PM. A concentration of […] PM (which quantitatively eliminates wildtype MCF7 cells) was applied to select MCF7 cells with stably integrated expression cassettes. PM-resistant colonies selected with the same procedure as described above for the DT selection and visualized and quantified (between 12 and 14 days after start of selection) in the same manner as described above for toxin resistant colonies. Number of PM resistant colonies obtained with non-target guide sequences (scrambled gRNA, FIG. 1) reflect the nonspecific integration background. Increase in colonies (above nonspecific background) obtained with target-gene gRNAs which are PM-resistant but toxin sensitive reflect integration into just one target allele, leaving the other dph1 or dph2 allele unaffected. […]

[2] = test system: DPH1 gene; experiment: DT resistant colony count after DPH1 gene editing (homozygous gene inactivation); format: cell-based, human; settings: for # of DT resistant colonies (20,000 seeded cells): MCF7, individual samples A-D; for # of DT resistant colonies: DPH1 assay (integr. vs. k.o.), MCF7, 20,000 seeded cells, individual samples
Procedure: as §1, §2
MCF7 cells which have all chromosomal copies of DPH1 or DPH2 inactivated are resistant to diphtheria toxin (Stahl, et al. 2015). Thus, occurrence and frequency of toxin resistant cells/colonies upon CRISPR/Cas inflicted gene inactivation provides a measure for efficiency of inactivation of all gene copies. Therefore, MCF/cells were transfected as described in Example 1 with (i) a GFP expression plasmid as transfection control, (ii) the CRISPR/Cas9 Dph1 or Dph2 knock-out/integration system and (iii) knock-out/integration entities containing a scrambled gRNA to determine Cas9 independent integration frequencies. After determination of transfection efficiency, cells were seeded in 6-well plates. For quantification of homozygous knock-out events by DT 20000 cells were seeded and for quantification of integration events by PM or both events 40000 cells were seeded. RPMI medium was exchanged by RPMI medium containing DT or PM or both toxins 3 days after cell seeding. Exchange of medium was repeated every 2-3 days until all dead cells were removed from the plates and actively growing colonies could be detected via microscopic inspection. Thereafter (between day 12 and day 14 after start of toxin exposure), cells were washed 3 times with PBS and subsequently stained with ice cold methylene blue (0.2% in 50% EtOH). Methylene blue solution was subsequently removed and the plates were carefully washed under running water. Finally, cell colonies were counted under the microscope with a 5 mm grid foil.
MCF7 cells which have all chromosomal copies of DPH1 inactivated are DT resistant. Thus, occurrence and frequency of DTr colonies upon ZFN inflicted gene inactivation and/or cassette integration provides a measure for efficacy of inactivation of all gene copies. The ZFN recognition sequence ([…], cleavage site, SEQ ID NO: 10) are derived from NM_001383.3 (DPH1-wt) and were obtained from Sigma Aldrich. A PAC integration cassette for this position was obtained from OriGene. MCF7 cells were transfected as described above with (i) a GFP expression plasmid, (ii) the plasmid encoding DPH1-targeting ZFN and (iii) the DPH1-targeting PAC-integration cassette. After determination of transfection efficiency, cells were seeded in 6-well plates. For quantification of homozygous knock-out events (DTr) 20,000 cells were seeded, 40,000 cells for quantification of integration events (PMr) or double resistances. […]

[3] = DPH1 (gRNA length), TF eff. = 31%
[4] = DPH1 (gRNA length), TF eff. = 31%, listed as 20 mer Dph1 CRISPR Cas9 gRNA
[5] = DPH1 assay (integr. vs. (integr. + k.o.)), TF eff. = 67*%

## 20 mer SpCas9 DPH1 gRNA: Plasmids encoding SpCas9 and Dph1 gRNA (target CAGGGCGGCCGAGACGGCCC, SEQ ID NO: 01) plus PAC donor plasmid, OriGene
[1]; [3]
  # of PM resistant colonies (40,000 seeded cells): 16 (2×) and 20 and 8
  # of PM resistant colonies (40,000 seeded cells) (unheaded second sub-column: mean): 15
[1]; [4]
  # of PM resistant colonies (40,000 seeded cells): 16 (2×) and 20 and 8
[1]; [5]
  # of PM resistant colonies (40,000 seeded cells): 25 (2×) and 22 and 24
  # of PM resistant colonies (40,000 seeded cells) (unheaded second sub-column: mean): 24
[1]; DPH1 assay (integr. vs. (integr. + k.o.)), TF eff. = 67*%, listed as Dph1 CRISPR Cas9 gRNA
  # of PM resistant colonies (40,000 seeded cells): 25 (2×) and 22 and 24
[1]; DPH1 assay (integr. vs. k.o.), 10,000 seeded cells
  # of PM resistant colonies (mean of the samples): 9
[1]; DPH1 assay (integr. vs. k.o.), 20,000 seeded cells
  # of PM resistant colonies (mean of the samples): 13
[1]; DPH1 assay (integr. vs. k.o.), 40,000 seeded cells
  # of PM resistant colonies (mean of the samples): 24
[1]; MCF7, 10,000 seeded cells
  # of PM resistant colonies: 7 and 10 (2×) and 29
[1]; MCF7, 10,000 seeded cells, listed as CRISPR Cas9 Dph1 gRNA
  # of PM resistant colonies: 7 and 10 (2×)
[1]; MCF7, 20,000 seeded cells
  # of PM resistant colonies: 18 and 13 (2×) and 6
[1]; MCF7, 20,000 seeded cells, listed as CRISPR Cas9 Dph1 gRNA
  # of PM resistant colonies: 18 and 13 (2×) and 6
[1]; MCF7, 40,000 seeded cells
  # of PM resistant colonies: 29 and 12 and 30 and 24
[1]; MCF7, 40,000 seeded cells, listed as CRISPR Cas9 Dph1 gRNA
  # of PM resistant colonies: 29 and 12 and 30 and 24
[1]; DPH1 assay editing entities, MCF-7, individual replicates, TF eff. = 33%
  # of PM resistant colonies (80,000 seeded cells): 14 and 11 and 9 and 10
[1]; PMr colonies
  integration efficacy in dependence on gRNA length: Targeted integration clearly above background was observed
[2]
  efficiency relative to ZFN-editing (gene inactivation and integration): twice as efficient
  efficiency relative to engineered high fidelity CRISPR/Cas9: 5 fold
[2]; [3]
  # of DT resistant colonies (20,000 seeded cells): 417 and 406 and 409 and 404
  # of DT resistant colonies (20,000 seeded cells) (unheaded second sub-column: mean): 409
[2]; [4]
  # of DT resistant colonies (20,000 seeded cells): 417 and 406 and 409 and 404
[2]; DPH1 assay (integr. vs. k.o.), 20,000 seeded cells, TF eff. = 38%
  # of DT resistant colonies (mean of the samples): 472
[2]; TF eff. = 38%
  # of DT resistant colonies: 364 and 545 and 543 and 435
[2]; TF eff. = 38%, listed as CRISPR Cas9 Dph1 gRNA
  # of DT resistant colonies: 364 and 545 and 543 and 435
[2]; DTr colonies
  DPH1 inactivation efficacy in dependence on gRNA length: maximum DPH1 inactivation efficacy; also recorded: maximal DPH1 gene inactivation efficiency
[2]; MCF7, FIG. 5A
  frequency of complete inactivation of the DPH1 gene (all alleles): ~6 % of all transfected cells
[2]; MCF7, FIG. 6
  efficacy of inactivation of both DPH1 alleles (DTr) over integration of the PAC expression cassette (PMr): 30-50 fold
[2]; MCF7, considering transfection efficiencies of 40%
  frequency of complete inactivation of the DPH1 gene (all alleles): 2.5 % of all cells
